Laboratory results reported in patent publication US8471036B2, “Rhodacyanine derivative and pharmaceutical composition for treating leishmaniasis” (FUJIFILM Corporation, priority 2009, dated 2013).
Entries after “also recorded” stand apart in the source; their conditions may differ. Where a name gives a salt, the structure may show the parent alone. Read-outs that look alike come from different tables or passages of the source.

Columns and labels:
[1] = tested on: Leishmania donovani (L. Don, MHOM/ET/67/L82 strain); assay: Leishmania protozoa proliferation inhibition test (amastigotes, Alamar Blue); format: cell-based; details: for Selective Toxicity Coefficient: (IC50 against rat L6 cells)/(IC50 against leishmania protozoa)
Method: In this test, Leishmania donovani (L. Don, MHOM/ET/67/L82 strain) was used. The protozoa were maintained in the Syrian Golden hamster, and amastigotes were collected from the spleen of an infected hamster. A SM medium supplemented with 10% heat-inactivated fetal bovine serum was used in the experiment, and the pH was adjusted to 5.4. The protozoa were grown at 37° C. under an atmosphere having a CO2 concentration of 5%. The activity with respect to inhibition of the proliferation of leishmania protozoa was studied for Compounds A, C, and D according to the invention for test, and for MKT-077, Compound X, and miltefosine (positive compound, existing drug) as comparative compounds. The structures of the compounds are as shown below. Each compound was dissolved in DMSO to give a test solution having a predetermined concentration. Each of the compounds to be used in the test was dissolved in DMSO to give a test solution having a concentration of 10 mg/mL. Assays were performed in 96-well culture plates, with each well containing 100 μL of the culture medium containing 10^5 amastigotes with or without the test compound at a predetermined serial dilution. The test was conducted twice. […] Each culture plate was mounted on a microplate fluorometer, and irradiated with light at an excitation wavelength of 536 nm. The intensity of fluorescence at 588 nm was measured, and the residual ratios of leishmania protozoa in the group added with the test solution and in the control were calculated. […] The selective toxicity coefficient, which is used as an index of the selectivity against leishmania protozoa, was calculated according to the following equation, and the drug efficacy was evaluated. Selective toxicity coefficient=(IC50 value of the test compound against rat L6 cells)/(IC50 value of the test compound against leishmania protozoa)

[2] = tested on: Rat-derived L6 cells (rat skeletal myoblast cells); assay: Rat L6 cell proliferation inhibition test; format: cell-based
Method: Rat-derived L6 cells (rat skeletal myoblast cells) were used. The cells were cultured at 37° C. at a CO2 concentration of 5%, using, as a culture medium, a RPMI 1640 medium supplemented with 1% L-glutamine (200 mM) and 10% fetal bovine serum (FBS).
Each of the compounds to be tested was dissolved in DMSO to give a test solution having a concentration of 10 mg/mL.
96-well culture plates of which each well contained 4×10^4 cells in 100 μL of the culture medium were prepared. After 24 hours, a 3-fold dilution series was prepared according to an ordinary method by adding a medium containing the compound to be tested, and the test was conducted.
After incubating the culture plates for 72 hours in an incubator, the plates were inspected with respect to proliferation activity. The inspection was conducted as follows. 10 μL of the Alamar Blue aqueous solution as described above was added to each well, and the plates were incubated for another 2 hours. Then, the culture plates were mounted on a microplate fluorometer, and irradiated with light at an excitation wavelength of 536 nm. The intensity of fluorescence at 588 nm was measured, and the residual ratios of L6 cells in the group added with the test solution and in the control were calculated.
The 50% proliferation inhibitory concentration (IC50) values were determined based on the residual ratios of cells obtained above, and the results are shown in Table 1. In Table 1, “ND” represents that the test was not conducted.

[3] = tested on: leishmania protozoa in macrophages (L. Don); assay: Leishmania protozoa proliferation inhibition test in macrophages; format: cell-based, Leishmania donovani; details: amastigotes in murine peritoneal macrophages, 4 days incubation, number of infected macrophages
Method: The inhibitory activity on the proliferation of leishmania protozoa in macrophages was examined for Compounds A and B according to the invention and comparative compounds MKT-077, Compound X, Compound Y, Compound Z, and miltefosine (positive compound, existing drug). The structures of the compounds are as shown below. Peritoneal macrophages from NMRI mice are collected 1 day after stimulation of macrophage production with an intraperitoneal injection of 2 mL of a 2% potato starch suspension. The present test was conducted at 37° C. under an atmosphere having a CO2 concentration of 5%. Each of the compounds to be used in the test was dissolved in DMSO to give a test solution having a predetermined concentration. […] After 24 hours, 100 μL of a suspension containing amastigotes (1.2×10^6/mL) was further added to each well, giving a suspension having a amastigotes/macrophages ratio of 3/1. The amastigotes were prepared in the same manner as above, and suspended in the RPMI/FBS medium. After 24 hours, the medium containing free amastigotes was removed, the cells were washed once with medium, and fresh media containing the test compound at serial dilutions (four 3-fold dilutions for each compound) were added to the wells. […] The IC50 values were determined based on the number of infected macrophages.

[4] = tested on: L. donovani (strain MHOM/ET/67/HU3); assay: Anti-leishmania activity test using mice infected with leishmania; format: in vivo, Female BALB/c mice; details: amastigotes per 500 liver cells
Method: Compound A was used as the test compound in this test. Further, a pentostam-sensitive L. donovani (strain MHOM/ET/67/HU3) was used in this test, and the protozoa were maintained in Syrian Golden hamsters, and amastigotes were isolated from spleen cells of the infected hamster. Then, an inoculum containing 7.5×10^7 amastigotes/mL in RPMI 1640 was prepared. Female BALB/c mice (20 g) were infected with the amastigotes by intravenous injection at the tail vein on day 0. On day 7 after infection, one mouse was sacrificed, liver smears were methanol-fixed and Giemsa-stained, thereby confirming infection. The test compound was dissolved in an aqueous solution containing 10% ethanol and 5% glucose, and administered to the mice once a day for 5 days from day 7 to day 11. 3 days after the completion of the administration of the drug, livers were removed and weighed, and smears were methanol-fixed and then Giemsa-stained. The number of amastigotes (average value) per 500 liver cells was determined by counting, and the infection inhibition rate was determined based on the comparison thereof with mice that had not been treated with the drug. Infection inhibition rate (%)=[1−(b−a)/(c−a)]×100 a: Initial infection rate b: Infection rate in the mice treated with the test solution c: Infection rate in the control mice

[5] = tested on: Peritoneal macrophages from NMRI mice; assay: Toxic effect on macrophages in the macrophage test; format: cell-based; details: murine peritoneal macrophages in the macrophage test
Method: Peritoneal macrophages from NMRI mice are collected 1 day after stimulation of macrophage production with an intraperitoneal injection of 2 mL of a 2% potato starch suspension. The present test was conducted at 37° C. under an atmosphere having a CO2 concentration of 5%. Each of the compounds to be used in the test was dissolved in DMSO to give a test solution having a predetermined concentration.
100 μL of a murine macrophage suspension (4×10^5/mL) in a RPMI 1640 medium containing bicarbonate and N-2-hydroxyethylpiperazine-N′-2-ethanesulfonic acid (HEPES) and supplemented with 10% heat-inactivated fetal bovine serum (RPMI/FBS medium) was added to wells of 96-well culture plates. After 24 hours, 100 μL of a suspension containing amastigotes (1.2×10^6/mL) was further added to each well, giving a suspension having a amastigotes/macrophages ratio of 3/1. The amastigotes were prepared in the same manner as above, and suspended in the RPMI/FBS medium. After 24 hours, the medium containing free amastigotes was removed, the cells were washed once with medium, and fresh media containing the test compound at serial dilutions (four 3-fold dilutions for each compound) were added to the wells. The growth of the protozoa in samples treated with the test-compound-containing media was compared with that of the control. Specifically, after 4 days of incubation, the samples were fixed with methanol, and thereafter stained with a 10% Giemsa solution. The IC50 values were determined based on the number of infected macrophages.
It is unexpected and surprising finding that such a harsh toxic effect against macrophages is reduced by introduction of a halogen atom, particularly a fluorine atom, according to the invention, and anti-leishmania activity is manifested.

[6] = Leishmania donovani, 72 h, pH 5.4, read-out: 50% Proliferation Inhibitory Concentration IC50 L. Don, amastigotes, 72 hours incubation, pH 5.4, Alamar Blue
[7] = Rattus norvegicus, L6, 72 h, read-out: 50% Proliferation Inhibitory Concentration IC50 L-6 Cells, rat L6 cells, 72 hours incubation, Alamar Blue

## CCn1c(=O)/c(=C/C=C2\Sc3ccccc3N2C)s/c1=C\c1sc2ccc(F)cc2[n+]1C (as salt: maleate) [Compound C, 2-((3-ethyl-5-(2-(3-methylbenzo[d]thiazol-2(3H)-ylidene)ethylidene)-4-oxothiazolidin-2-ylidene)methyl)-5-fluoro-3-methylbenzo[d]thiazol-3-ium maleate]
other
  melting point: 260.1 to 260.8 °C

## CCn1c(=O)/c(=C/C=C2\Sc3ccccc3N2C)s/c1=C\c1sc2ccc(F)cc2[n+]1C.[Cl-] [Compound A, 2-((3-ethyl-5-(2-(3-methylbenzo[d]thiazole-2(3H)-ylidene)ethylidene)-4-oxothiazolidine-2-ylidene)methyl-5-fluoro-3-methylbenzo[d]thiazole-3-ium chloride]
[1]; Leishmania donovani, amastigotes, 72 hours incubation, pH 5.4, Alamar Blue, read-out: 50% Proliferation Inhibitory Concentration IC50 L. Don
  IC50: 11 nM
[2]; rat L6 cells, 72 hours incubation, Alamar Blue, read-out: 50% Proliferation Inhibitory Concentration IC50 L-6 Cells
  IC50: > 173 µM
[3]; Leishmania, Macrophage, 96 h
  IC50: 353 nM

## CCn1c(=O)/c(=C/C=C2\Sc3ccccc3N2C)s/c1=C\c1sc2ccc(F)cc2[n+]1C.[Cl-] [Compound A]
[1]
  Selective Toxicity Coefficient: >15,000
[2]; rat L6 cells
  Toxicity toward normal cells: only a weak toxicity toward normal cells
other
  melting point: 274.5 to 275.6 °C
[4]; intravenous injection 0.20 mg/kg/day × 5 days
  Infection Inhibition Rate: 16.1%
[4]; intravenous injection 1.30 mg/kg/day × 5 days
  Infection Inhibition Rate: 94.9%
[4]; intravenous injection 4.10 mg/kg/day × 5 days
  Infection Inhibition Rate: 97.1%

## CCn1c(=O)/c(=C/C=C2\Sc3ccccc3N2C)s/c1=C\c1sc2ccc(F)cc2[n+]1C [Compound C, 2-((3-ethyl-5-(2-(3-methylbenzo[d]thiazol-2(3H)-ylidene)ethylidene)-4-oxothiazolidin-2-ylidene)methyl)-5-fluoro-3-methylbenzo[d]thiazol-3-ium maleate]
[1]
  Selective Toxicity Coefficient: 2,870
[1]; [6]
  IC50: 25 nM
[2]; [7]
  IC50: 71.7 µM
[2]; rat L6 cells
  Toxicity toward normal cells: only a weak toxicity toward normal cells

## CCn1c(=O)/c(=C/C=C2\Sc3ccccc3N2C)s/c1=C\c1sc2ccc(F)cc2[n+]1C [Compound D, 2-((3-ethyl-5-(2-(3-methylbenzo[d]thiazol-2(3H)-ylidene)ethylidene)-4-oxothiazolidin-2-ylidene)methyl)-5-fluoro-3-methylbenzo[d]thiazol-3-ium methanesulfonate]
[1]; methanesulfonate
  Selective Toxicity Coefficient: 4,220
[1]; read-out: 50% Proliferation Inhibitory Concentration IC50 L. Don, amastigotes, 72 hours incubation, pH 5.4, Alamar Blue, methanesulfonate
  IC50: 20 nM
[2]; read-out: 50% Proliferation Inhibitory Concentration IC50 L-6 Cells, rat L6 cells, 72 hours incubation, Alamar Blue, methanesulfonate
  IC50: 84.5 µM

## CCn1c(=O)/c(=C/C=C2\Sc3ccccc3N2C)s/c1=C\c1sc2ccccc2[n+]1C [Compound X, reference compound]
[1]
  Selective Toxicity Coefficient: 2,400
[1]; [6]
  IC50: 52 nM
[2]; [7]
  IC50: 125 µM
[5]
  Toxic effect against macrophages: Could not be tested as the macrophages died

## CCN1/C(=C/C=c2\s/c(=C\c3sc4c5ccccc5ccc4[n+]3CC)n(CC)c2=O)Sc2ccc3ccccc3c21 [Compound Y]
[5]
  Toxic effect against macrophages: macrophages were killed by strong toxic effects; also recorded: Could not be tested as the macrophages died

## CCN1CCS/C1=C\C=c1/s/c(=C\c2sc3c4ccccc4ccc3[n+]2CCO)n(CC)c1=O [Compound Z]
[5]
  Toxic effect against macrophages: macrophages were killed by strong toxic effects; also recorded: Could not be tested as the macrophages died

## CCCCCCCCCCCCCCCCOP(=O)([O-])OCC[N+](C)(C)C [Miltefosine, miltefosine, reference compound]
[1]; amastigotes, 72 hours incubation, pH 5.4, Alamar Blue, read-out: 50% Proliferation Inhibitory Concentration IC50 L. Don
  IC50: 430 nM
[3]
  IC50: 811 nM
